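GI50: concentration for 50% inhibition of growth. TGI: concentration producing complete growth inhibition.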
How the values were obtained:
Assay in all cases: NCI anticancer screen, dose series, 384-well format
786-0 renal = tested on: 786-0 renal
A498 renal = tested on: A498 renal
A549 NSCLC = tested on: A549 NSCLC
ACHN renal = tested on: ACHN renal
BT-549 breast = tested on: BT-549 breast
CAKI-1 renal = tested on: CAKI-1 renal
CCRF-CEM leukemia = tested on: CCRF-CEM leukemia
COLO 205 colon = tested on: COLO 205 colon
DU-145 prostate = tested on: DU-145 prostate
EKVX NSCLC = tested on: EKVX NSCLC
HCC-2998 colon = tested on: HCC-2998 colon
HCT-116 colon = tested on: HCT-116 colon
HCT-15 colon = tested on: HCT-15 colon
HL-60(TB) leukemia = tested on: HL-60(TB) leukemia
HOP-62 NSCLC = tested on: HOP-62 NSCLC
HOP-92 NSCLC = tested on: HOP-92 NSCLC
HS 578T breast = tested on: HS 578T breast
HT29 colon = tested on: HT29 colon
IGROV1 ovarian = tested on: IGROV1 ovarian
K-562 leukemia = tested on: K-562 leukemia
KM12 colon = tested on: KM12 colon
LOX IMVI melanoma = tested on: LOX IMVI melanoma
M14 melanoma = tested on: M14 melanoma
MALME-3M melanoma = tested on: MALME-3M melanoma
MCF7 breast = tested on: MCF7 breast
MDA-MB-231 breast = tested on: MDA-MB-231 breast
MDA-MB-435 melanoma = tested on: MDA-MB-435 melanoma
MDA-MB-468 breast = tested on: MDA-MB-468 breast
MOLT-4 leukemia = tested on: MOLT-4 leukemia
NCI-H226 lung = tested on: NCI-H226 lung
NCI-H23 lung = tested on: NCI-H23 lung
NCI-H322M lung = tested on: NCI-H322M lung
NCI-H460 NSCLC = tested on: NCI-H460 NSCLC
NCI-H522 lung = tested on: NCI-H522 lung
NCI/ADR-RES ovarian = tested on: NCI/ADR-RES ovarian
OVCAR-3 ovarian = tested on: OVCAR-3 ovarian
OVCAR-4 ovarian = tested on: OVCAR-4 ovarian
OVCAR-8 ovarian = tested on: OVCAR-8 ovarian
PC-3 prostate = tested on: PC-3 prostate
RPMI-8226 leukemia = tested on: RPMI-8226 leukemia
RXF 393 renal = tested on: RXF 393 renal
SF-268 CNS = tested on: SF-268 CNS
SF-295 CNS = tested on: SF-295 CNS
SF-539 CNS = tested on: SF-539 CNS
SK-MEL-28 melanoma = tested on: SK-MEL-28 melanoma
SK-MEL-5 melanoma = tested on: SK-MEL-5 melanoma
SK-OV-3 ovarian = tested on: SK-OV-3 ovarian
SN12C renal = tested on: SN12C renal
SNB-19 CNS = tested on: SNB-19 CNS
SNB-75 CNS = tested on: SNB-75 CNS
SR leukemia = tested on: SR leukemia
SW-620 colon = tested on: SW-620 colon
T-47D breast = tested on: T-47D breast
TK-10 renal = tested on: TK-10 renal
U251 glioblastoma = tested on: U251 glioblastoma
UACC-257 melanoma = tested on: UACC-257 melanoma
UACC-62 melanoma = tested on: UACC-62 melanoma
UO-31 renal = tested on: UO-31 renal

CC/C(=C(/c1ccc(/C=C/C(=O)O)cc1)c1ccc2[nH]ncc2c1)c1ccc(F)cc1Cl was tested, and the GI50 ([…]-0 renal) was 12.7 µM, the TGI (786-0 renal) was 25.9 µM and the GI50 (A498 renal) was 10.9 µM. It also gave a TGI (A498 renal) of 22.9 µM, a GI50 (A549 NSCLC) of 10.4 µM and a TGI (A549 NSCLC) of 22.3 µM. For the same compound, the GI50 (ACHN renal) was 13.7 µM, the TGI (ACHN renal) was 26.6 µM and the GI50 (BT-549 breast) was 14.7 µM. The TGI (BT-549 breast) was 27.9 µM, the GI50 (CAKI-1 renal) was 16.6 µM and the TGI (CAKI-1 renal) was 30.4 µM. For the same compound, the GI50 (CCRF-CEM leukemia) was 10.5 µM, the TGI (CCRF-CEM leukemia) was 22.3 µM and the GI50 (COLO 205 colon) was 15.1 µM. It also gave a TGI (COLO 205 colon) of 28.7 µM, a GI50 (DU-145 prostate) of 15.9 µM and a TGI (DU-145 prostate) of 29.4 µM. For the same compound, the GI50 (EKVX NSCLC) was 14.7 µM, the TGI (EKVX NSCLC) was 28.2 µM and the GI50 (HCC-2998 colon) was 18.3 µM. For the same compound, the TGI (HCC-2998 colon) was 32.3 µM, the GI50 (HCT-116 colon) was 15.3 µM and the TGI (HCT-116 colon) was 29.4 µM. For the same compound, the GI50 (HCT-15 colon) was 12.4 µM, the TGI (HCT-15 colon) was 25.2 µM and the GI50 (HL-60(TB) leukemia) was 6.03 µM. For the same compound, the TGI (HL-60(TB) leukemia) was 18.5 µM, the GI50 (HOP-62 NSCLC) was 9.36 µM and the TGI (HOP-62 NSCLC) was 21.4 µM. The GI50 (HOP-92 NSCLC) was 14.2 µM, the TGI (HOP-92 NSCLC) was 27.6 µM and the GI50 (HS 578T breast) was 15.6 µM. For the same compound, the TGI (HS 578T breast) was 29 µM, the GI50 (HT29 colon) was 16.7 µM and the TGI (HT29 colon) was 30.5 µM. For the same compound, the GI50 (IGROV1 ovarian) was 15.2 µM, the TGI (IGROV1 ovarian) was 29 µM and the GI50 (K-562 leukemia) was 14.5 µM. For the same compound, the TGI (K-562 leukemia) was 29.5 µM, the GI50 (KM12 colon) was 14.4 µM and the TGI (KM12 colon) was 27.5 µM. The GI50 (LOX IMVI melanoma) was 10.5 µM, the TGI (LOX IMVI melanoma) was 22.4 µM and the GI50 (M14 melanoma) was 7.57 µM. The TGI (M14 melanoma) was 20.5 µM, the GI50 (MALME-3M melanoma) was 14.8 µM and the TGI (MALME-3M melanoma) was 28 µM. It also gave a TGI (MCF7 breast) of 15.1 µM, a GI50 (MDA-MB-231 breast) of 15.1 µM and a TGI (MDA-MB-231 breast) of 28.4 µM. For the same compound, the GI50 (MDA-MB-435 melanoma) was 2.71 µM, the TGI (MDA-MB-435 melanoma) was 7.22 µM and the GI50 (MDA-MB-468 breast) was 11.5 µM. For the same compound, the TGI (MDA-MB-468 breast) was 23.8 µM, the GI50 (MOLT-4 leukemia) was 12.9 µM and the TGI (MOLT-4 leukemia) was 25.9 µM. It also gave a GI50 (NCI-H226 lung) of 18.1 µM, a TGI (NCI-H226 lung) of 32.1 µM and a GI50 (NCI-H23 lung) of 14.7 µM. It also gave a TGI (NCI-H23 lung) of 27.9 µM, a GI50 (NCI-H322M lung) of 14.2 µM and a TGI (NCI-H322M lung) of 27.4 µM. For the same compound, the GI50 (NCI-H460 NSCLC) was 16.6 µM, the TGI (NCI-H460 NSCLC) was 30.5 µM and the GI50 (NCI-H522 lung) was 14.6 µM. It also gave a TGI (NCI-H522 lung) of 27.8 µM, a GI50 (NCI/ADR-RES ovarian) of 14.1 µM and a TGI (NCI/ADR-RES ovarian) of 27.7 µM. The GI50 (OVCAR-3 ovarian) was 14.3 µM, the TGI (OVCAR-3 ovarian) was 27.6 µM and the GI50 (OVCAR-4 ovarian) was 14.2 µM. The TGI (OVCAR-4 ovarian) was 28 µM, the GI50 (OVCAR-8 ovarian) was 15.3 µM and the TGI (OVCAR-8 ovarian) was 28.7 µM. For the same compound, the GI50 (PC-3 prostate) was 13.7 µM, the TGI (PC-3 prostate) was 26.7 µM and the GI50 (RPMI-8226 leukemia) was 5.4 µM. The TGI (RPMI-8226 leukemia) was 16.9 µM, the GI50 (RXF 393 renal) was 8.35 µM and the TGI (RXF 393 renal) was 21 µM. It also gave a GI50 (SF-268 CNS) of 15.6 µM, a TGI (SF-268 CNS) of 29 µM and a GI50 (SF-295 CNS) of 4.65 µM. It also gave a TGI (SF-295 CNS) of 17 µM, a GI50 (SF-539 CNS) of 14.3 µM and a TGI (SF-539 CNS) of 27.4 µM. The GI50 (SK-MEL-28 melanoma) was 12.5 µM, the TGI (SK-MEL-28 melanoma) was 26.1 µM and the GI50 (SK-MEL-5 melanoma) was 12.6 µM. The TGI (SK-MEL-5 melanoma) was 25.2 µM, the GI50 (SK-OV-3 ovarian) was 18 µM and the TGI (SK-OV-3 ovarian) was 32.5 µM. The GI50 (SN12C renal) was 17.1 µM, the TGI (SN12C renal) was 31.6 µM and the GI50 (SNB-19 CNS) was 14.4 µM. The TGI (SNB-19 CNS) was 27.5 µM, the GI50 (SNB-75 CNS) was 13.7 µM and the TGI (SNB-75 CNS) was 26.6 µM. The GI50 (SR leukemia) was 3 µM, the TGI (SR leukemia) was 6.35 µM and the GI50 (SW-620 colon) was 18.1 µM. It also gave a TGI (SW-620 colon) of 32.2 µM, a GI50 (T-47D breast) of 11.9 µM and a TGI (T-47D breast) of 25.2 µM. The GI50 (TK-10 renal) was 16.3 µM, the TGI (TK-10 renal) was 31.2 µM and the GI50 (U251 glioblastoma) was 11.8 µM. The TGI (U251 glioblastoma) was 24.2 µM, the GI50 (UACC-257 melanoma) was 15.1 µM and the TGI (UACC-257 melanoma) was 29 µM. It also gave a GI50 (UACC-62 melanoma) of 13 µM, a TGI (UACC-62 melanoma) of 25.8 µM and a GI50 (UO-31 renal) of 10.1 µM. It also gave a TGI (UO-31 renal) of 21.8 µM.
